# Read-outs that look alike come from different tables or passages of the source.
# Tests used:
# PDE4B2 = PDE4B2 (Homo sapiens (Human), UniProt Q07343); experiment: PDE4 inhibition assay (fluorescence polarization), PDE4B2; format: biochemical
# Procedure: (§1) 100 μM dilutions of the test compounds were prepared in assay buffer (10% DMSO concentration) and 5 μl of the dilution was added to a 50 μl reaction so that the final concentration of DMSO is 1% in all of reactions. The enzymatic reactions were conducted at room temperature for 60 minutes in a 50 μl mixture containing PDE assay buffer, 100 nM FAM-cAMP, a PDE enzyme (Table 2.3.1) and the test compound (Section 2.2). After the enzymatic reaction, 100 μl of a binding solution (1:100 dilution of the binding agent with the binding agent diluent) was added to each reaction and the reaction was performed at room temperature for 60 minutes. Fluorescence intensity was measured at an excitation of 485 nm and an emission of 528 nm using a Tecan Infinite M1000 microplate reader.
# (§2) • 1) Dilute 20 μM FAM-Cyclic-3′, 5′-AMP stock 100-fold with PDE buffer to make a 200 nM solution. • 2) Add 25 μl of FAM-Cyclic-3′,5′-AMP (200 nM) to each well designated “Positive Control”, “Test Inhibitor”, and “Substrate Control”. • 3) Add 20 μl of PDE assay buffer to each well designated “Substrate Control” and 45 μl of PDE assay buffer to each well designated “Blank”. • 4) Add 5 μl of inhibitor solution to each well designated “Test Inhibitor”. For the wells labeled “Positive Control”, “Substrate Control” and “Blank”, add 5 μl of the same solution without inhibitor (inhibitor buffer). • 5) Thaw PDE on ice. Upon first thaw, briefly spin tube containing enzyme to recover the full contents of the tube. • 6) Dilute PDE4 in PDE buffer to 7.5 pg/μl (0.15 ng/reaction)*. Initiate reaction by adding 20 µl of PDE4 (7.5 pg/μl) to the wells designated “Positive Control” and “Test Inhibitor.” • 7) Incubate at room temperature for 1 hour.
# (§3) • 1) Mix binding agent thoroughly and dilute binding agent 1:100 with binding agent diluent. • 2) Add 100 μl diluted binding agent to each microwell. Incubate at room temperature for 1 hour with slow shaking. • 3) Read the fluorescent polarization of the sample in a microtiter-plate reader equipped for the measurement of fluorescence polarization, capable of excitation at wavelengths ranging from 485±5 nm and detection of emitted light ranging from 528±10 nm. Blank value is subtracted from all other values. • 4) Data Analysis: PDE activity assays were performed in duplicate at each concentration. Fluorescence intensity is converted to fluorescence polarization using the Tecan Magellan6 software. The fluorescence polarization data were analyzed using the computer software, Graphpad Prism. The fluorescence polarization (FPt) in absence of the compound in each data set was defined as 100% activity. In the absence of PDE and the compound, the value of fluorescent polarization (FPb) in each data set was defined as 0% activity. The percent activity in the presence of the compound was calculated according to the following equation: % activity=(FP−FPb)/(FPt−FPb)×100%, where FP=the fluorescence polarization in the presence of the compound. The values of % activity versus a series of compound concentrations were then plotted using non-linear regression analysis of sigmoidal dose-response curve generated with the equation Y=B+(T−B)/1+10^(LogEC50−X)×Hill Slope), where Y=percent activity, B=minimum percent activity, T=maximum percent activity, X=logarithm of compound and Hill Slope=slope factor or Hill coefficient. The IC50 value was determined by the concentration causing a half-maximal percent activity.
# in vitro = settings: human hepatocytes
# Procedure: (§4) A 2.5 uL aliquot of 100 μM test compound was incubated with 247.5 uL of cryopreserved hepatocytes suspended in serum-free incubation medium at 1 million viable cells/mL. The mixture was incubated at 37° C. and shaken at 500 rpm for the designated time points (0.5, 5, 10, 15, 30, 60, 90, or 120 min). At each time point, 25 uL aliquot of incubation mixture was transferred to 125 uL of cold acetonitrile containing internal standard, followed by centrifugation for 30 min at 3,220 g. 100 uL of supernatant was mixed with 100 uL of distilled water for analysis by LC-MS/MS. Peak area ratios were determined from extracted ion chromatograms and percent recovery was calculated.
# PDE4D2 = PDE4D2 (Homo sapiens (Human), UniProt Q08499); experiment: PDE4 inhibition assay (fluorescence polarization), PDE4D2; format: biochemical; settings: 10 μM
# Procedure: as §1, §2, §3
# [1] = human, 1 µM
# Procedure: as §4
# [2] = Hepatocyte metabolism (stability in cryopreserved hepatocytes); settings: human hepatocytes
# Procedure: as §4
# PDE4A1A = PDE4A1A (Homo sapiens (Human), UniProt P27815); experiment: PDE4 inhibition assay (fluorescence polarization), PDE4A1A; format: biochemical; settings: 10 μM
# Procedure: as §1, §2, §3
# SERT = SERT (Homo sapiens (Human), UniProt P31645); experiment: SERT inhibition assay (Neurotransmitter Transporter fluorescence uptake, stable 5HTT HEK293 cells); format: cell-based; settings: n=6 ± SD
# Procedure: SERT inhibition was measured using a Neruotransmitter Transportation Fluorescence assay. Briefly, stable 5HTT HEK293 cells were prepared in a 384 microwell plate (20,000 cells per 20 μL well). Compounds were prepared by in assay buffer (20 mM HEPES in HBSS, 0.1% BSA) at a top concentration of 1 μM. 10 doses of test compound (3-fold serial dilution) were added to the plated cells and incubated for 30 minutes at 37° C. 25 μL of dye solution (Molecular Devices Neurotransmitter Transporter Uptake Assay Kit) was added per well and incubated for 30 minutes at 37° C.
# [3] = dog, in vivo
# Excerpt: (§5) HPLC Instrument: Shimsadzu (DGU-20A5R, Serial No: L20705621435 IX; LC-30AD Serial No: L20555611905 AE and L20555611816 AE; SIL-L30AC, Serial No: L20565605499 AE; Rack Changer II Serial No. L20585601125 SS; CTO20A: Serial No. L20205620413 CD; CBM-20A: Serial No. L20235636200 CD) • MS: AB API 5500 LC/MS/MS instrument (Serial No. EF221221812) • Column: Phenomenex Synergi 2.5 μm Polar-RP 100A. (50×3 mm) • Mobile Phase: (A) 5% Acetonitrile in Water (0.1% Formic acid); (B) 95% Acetonitrile in Water (0.1% Formic acid) • Samples: 50 μL of plasma sample+5 μL of blank solution+200 μL of acetonitrile for PPE (protein precipitation extraction).
# (§6) The desired serial concentrations of working solutions were achieved by diluting stock solution of analyte with 50% acetonitrile in water solution. 5 μL of working solutions (5, 10, 20, 50, 100, 500, 1000, 5000, 10000 ng/mL) were added to 50 μL of the blank Beagle Dog plasma to achieve calibration standards of 0.5˜1000 ng/mL (0.5, 1, 2, 5, 10, 50, 100, 500, 1000 ng/mL) in a total volume of 55 μL. Five quality control samples at 1 ng/mL, 2 ng/mL, 5 ng/mL, 50 ng/mL and 800 ng/mL for plasma were prepared independently of those used for the calibration curves. These QC samples were prepared on the day of analysis in the same way as calibration standards.
# (§7) 55 μL standards, 55 μL QC samples and 55 μL unknown samples 50 μL plasma with 5 μL blank solution) were added to 200 μL of acetonitrile containing IS mixture for precipitating protein respectively. Then the samples were vortexed for 30 s. After centrifugation at 4 degree Celsius, 3900 rpm for 15 min, the supernatant was diluted 3 times with water.
# in vivo = settings: beagle, dog
# Excerpt: as §5, §6, §7
# PDE4C1 = PDE4C1 (Homo sapiens (Human), UniProt Q08493); experiment: PDE4 inhibition assay (fluorescence polarization), PDE4C1; format: biochemical; settings: 10 μM
# Procedure: as §1, §2, §3
# mouse behavior = experiment: SmartCube system behavioral signature in mice; format: in vivo
# Excerpt: To confirm that compound 018 and Compound 019 has antidepressant effects, the SmartCube® system (Psychogenics, Inc., Paramus, NJ) was used. This system uses features derived from mouse behavioral data to classify compounds for their ability to treat neuro-psychiatric symptoms by comparing the features to a proprietary reference database of behavioral feature sets that are linked to classes of marketed drugs known to treat neuro-psychiatric symptoms. Thus the system can be used as a model to identify the psychiatric effect of a compound by comparing the effects of the compounds against drugs with known validated effects. By comparing the responses of animals to known drugs, the test drug can be categorized according to its function; for example, hallucinogen, anxiogenic, analgesic, cognitive enhancer, psychostimulant, mood stabilizer, high dose anti-psychotic, anti-psychotic, sedative/hypnotic, anxiolytic, high dose antidepressant, antidepressant.
# Once all features are extracted from the raw data through an automated pipeline, proprietary bioinformatics algorithms are used to decorrelate groups of features and find the combination of values that best separate different groups of interest. For each compound, at each dose, they system provides a probability that the drug is active and breaks down such putative activity into the different classes of interest.
# Mice were tested in the SmartCube® system where they were exposed to a sequence of challenges during the 45-minute test period. The cubes were cleaned between each run.
# For class and subclass analysis, a reference data set has been built from hundreds of drug doses in multiple drug classes plus a control group. Each reference drug was tested at multiple doses appropriate for that drug in mice. The best performing classifiers were chosen from our evaluation tests and two separate types of classifiers were built that make independent predictions at drug class and subclass levels. The Class consists of drugs that are currently in the market or have been clinically validated for that specific indication. The sub-class consists of both marketed drugs and other compounds that have been mechanistically validated and is a larger set than the Class.
# Data was processed using proprietary computer vision and data mining algorithms and the results were compared to signatures of the reference compounds in our database. Multiple analyses of the data was performed to quantitatively produce independent predictions of drug class, and drug subclass. The behavioral signatures of the test drug were evaluated using these classifiers to predict potential therapeutic utility.
# Sequence of PDE4B2 (Q07343 other isoform, or with tags, fused parts or gaps): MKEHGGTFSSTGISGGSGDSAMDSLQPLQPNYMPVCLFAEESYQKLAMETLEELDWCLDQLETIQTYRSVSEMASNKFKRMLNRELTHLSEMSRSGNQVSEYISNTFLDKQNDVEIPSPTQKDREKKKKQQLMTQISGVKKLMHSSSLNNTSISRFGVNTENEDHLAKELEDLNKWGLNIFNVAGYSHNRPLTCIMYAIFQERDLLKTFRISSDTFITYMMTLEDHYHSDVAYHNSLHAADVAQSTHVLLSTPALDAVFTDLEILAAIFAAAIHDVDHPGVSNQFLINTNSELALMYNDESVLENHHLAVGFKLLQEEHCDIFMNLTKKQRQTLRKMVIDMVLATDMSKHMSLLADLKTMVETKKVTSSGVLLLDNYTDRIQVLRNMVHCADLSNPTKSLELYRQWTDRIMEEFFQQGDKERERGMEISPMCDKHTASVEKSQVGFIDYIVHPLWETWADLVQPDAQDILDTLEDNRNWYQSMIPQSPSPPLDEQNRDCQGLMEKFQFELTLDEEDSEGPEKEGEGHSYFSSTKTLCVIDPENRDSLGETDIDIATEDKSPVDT
# Sequence of PDE4A1A (P27815 other isoform, or with tags, fused parts or gaps): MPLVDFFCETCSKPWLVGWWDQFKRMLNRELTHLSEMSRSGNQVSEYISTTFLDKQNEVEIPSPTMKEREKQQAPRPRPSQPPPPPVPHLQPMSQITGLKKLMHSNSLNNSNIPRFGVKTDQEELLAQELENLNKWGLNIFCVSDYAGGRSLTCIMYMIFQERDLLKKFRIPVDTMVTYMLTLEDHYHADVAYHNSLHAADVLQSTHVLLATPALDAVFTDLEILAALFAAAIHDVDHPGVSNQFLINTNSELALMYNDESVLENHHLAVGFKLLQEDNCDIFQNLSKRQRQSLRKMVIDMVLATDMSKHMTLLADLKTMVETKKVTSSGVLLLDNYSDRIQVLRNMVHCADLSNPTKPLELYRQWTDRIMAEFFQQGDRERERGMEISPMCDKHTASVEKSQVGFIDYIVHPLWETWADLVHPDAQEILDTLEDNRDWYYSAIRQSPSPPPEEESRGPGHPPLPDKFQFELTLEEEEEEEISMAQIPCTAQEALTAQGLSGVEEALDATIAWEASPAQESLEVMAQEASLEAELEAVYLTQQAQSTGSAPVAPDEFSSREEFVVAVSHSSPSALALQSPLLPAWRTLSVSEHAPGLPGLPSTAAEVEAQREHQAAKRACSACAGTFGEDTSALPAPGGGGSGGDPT
# Sequence of PDE4D2 (Q08499 303-809): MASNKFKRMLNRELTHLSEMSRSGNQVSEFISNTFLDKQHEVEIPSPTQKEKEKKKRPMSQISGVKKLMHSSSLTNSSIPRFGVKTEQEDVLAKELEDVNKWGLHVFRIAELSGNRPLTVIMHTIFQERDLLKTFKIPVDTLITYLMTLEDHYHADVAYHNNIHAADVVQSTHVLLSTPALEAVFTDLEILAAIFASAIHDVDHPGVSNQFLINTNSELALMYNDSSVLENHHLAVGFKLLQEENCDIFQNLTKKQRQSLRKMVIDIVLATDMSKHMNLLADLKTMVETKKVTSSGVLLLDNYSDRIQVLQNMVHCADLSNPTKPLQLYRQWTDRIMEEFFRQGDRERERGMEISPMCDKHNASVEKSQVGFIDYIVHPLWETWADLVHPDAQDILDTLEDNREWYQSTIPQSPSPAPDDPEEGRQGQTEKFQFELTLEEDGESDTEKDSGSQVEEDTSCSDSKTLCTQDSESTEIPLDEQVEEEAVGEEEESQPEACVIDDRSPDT
# Sequence of PDE4C1 (Q08493 whole entry): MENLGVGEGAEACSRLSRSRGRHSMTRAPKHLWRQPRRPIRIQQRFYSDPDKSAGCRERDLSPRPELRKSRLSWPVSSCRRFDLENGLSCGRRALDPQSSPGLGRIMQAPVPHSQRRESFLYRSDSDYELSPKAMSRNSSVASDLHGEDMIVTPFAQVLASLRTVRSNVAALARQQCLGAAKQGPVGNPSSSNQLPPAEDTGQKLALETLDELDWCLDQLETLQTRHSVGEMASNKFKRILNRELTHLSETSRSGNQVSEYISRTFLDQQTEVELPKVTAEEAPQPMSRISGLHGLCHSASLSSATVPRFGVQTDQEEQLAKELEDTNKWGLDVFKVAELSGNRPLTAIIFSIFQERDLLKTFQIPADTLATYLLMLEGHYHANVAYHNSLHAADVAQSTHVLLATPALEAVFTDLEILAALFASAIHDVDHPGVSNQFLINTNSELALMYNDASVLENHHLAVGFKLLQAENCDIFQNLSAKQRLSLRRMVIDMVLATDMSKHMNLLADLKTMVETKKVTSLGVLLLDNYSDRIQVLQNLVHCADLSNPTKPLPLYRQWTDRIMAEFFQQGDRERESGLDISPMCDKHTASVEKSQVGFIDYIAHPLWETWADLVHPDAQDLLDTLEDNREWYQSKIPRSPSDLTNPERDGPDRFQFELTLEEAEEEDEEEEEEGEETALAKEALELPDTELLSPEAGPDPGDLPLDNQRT
smiles,measurement,setting,value
"COc1ccc([C@@]23CC[C@H](O)C[C@@H]2N(C)CC3)cc1OC [Compound 019, (3aS,6S,7aS)-3a-(3,4-dimethoxyphenyl)-1-methyloctahydro-1H-indol-6-ol]",PDE4B2 % INH @ 10 μM,PDE4B2,0%
same,PDE4B2 % INH @ 10 μM,PDE4B2; listed as Compound 19,no more than 5%
same,CLint scaled at 1 µM,in vitro,< 2 mL/min/kg
same,half-life at 1 µM,in vitro,> 2 h
same,hepatocyte CLint at 1 µM,in vitro,< 1 µL/min/1e6 cells
same,PDE4D2 %INH @ 10 μM,PDE4D2,3%
same,inhibition at 10 µM,PDE4D2; read-out: PDE4D2 %INH @ 10 μM,≤ 5%
same,% QH,[1],<10%
same,CLHB,[1],<2 mL/min/kg
same,Extraction Ratio,[2],<0.10
same,t1/2,[2],>2 h
same,PDE4A1A % INH @ 10 μM,PDE4A1A,4%
same,inhibition at 10 µM,PDE4A1A; read-out: PDE4A1A % INH @ 10 μM,≤ 5%
same,IC50,SERT,10.6 ± 10.1 nM
same,AUC_% Extrap_obs,"[3]; beagle, iv, 2 mg/kg",0.52%
same,AUClast/D,"[3]; beagle, iv, 2 mg/kg",1560
same,Cl_obs,"[3]; beagle, iv, 2 mg/kg",10.82 mL/min/kg
same,AUC_% Extrap_obs,"[3]; beagle, po, 10 mg/kg",0.64%
same,AUClast/D,"[3]; beagle, po, 10 mg/kg",1473.2
same,F,"[3]; beagle, po, 10 mg/kg",94.6%
same,half-life compared to Compound 018,[3]; iv,about three times greater
same,AUC(0-inf),"in vivo; iv, 2 mg/kg",3140 ng·h/mL
same,AUC(0-t),"in vivo; iv, 2 mg/kg",3120 ng·h/mL
same,C0,"in vivo; iv, 2 mg/kg",1530 ng/mL
same,MRT inf,"in vivo; iv, 2 mg/kg",3.86 h
same,half-life,"in vivo; iv, 2 mg/kg",3.38 h
same,AUC(0-inf),"in vivo; po, 10 mg/kg",14800 ng·h/mL
same,AUC(0-t),"in vivo; po, 10 mg/kg",14700 ng·h/mL
same,Cmax,"in vivo; po, 10 mg/kg",2550 ng/mL
same,MRT inf,"in vivo; po, 10 mg/kg",4.85 h
same,Tmax,"in vivo; po, 10 mg/kg",0.83 h
same,half-life,"in vivo; po, 10 mg/kg",3.33 h
same,PDE4C1 % INH @ 10 μM,PDE4C1,3%
same,inhibition at 10 µM,PDE4C1; read-out: PDE4C1 % INH @ 10 μM,≤ 5%
same,behavioral activity (in words),"mouse behavior; mice, 3 mg/kg",low behaviorally activity
same,"antidepressant signature, subclass analysis","mouse behavior; mice, 100 mg/kg",a mix of SSRI and SNRI
same,signature in class and subclass,"mouse behavior; mice, 10, 30 and 100 mg/kg",mixed antidepressant and psychostimulant-like signatures

# Source: patent US20240398759A1, “INHIBITING SEROTONIN TRANSPORTER PROTEIN (5-HTT)” (priority 2022, published 2024)
